Experiment [1] has as its target T1, β5 subunit of the human constitutive proteasome (CPS) (Homo sapiens, UniProt P28074).
T1 construct: purchased Boston Biochem E-360
In words: β5 inhibition assay, human constitutive proteasome (Suc-LLVY-AMC). In kind it is biochemical. The note with it: IC50 class, Suc-LLVY-AMC substrate. On the procedure:
The enzymatic activity of the β5 subunit of the human constitutive proteasome (CPS) is analyzed. In another assay, which differs from the assay of the human constitutive proteasome only in using the human immunoproteasome (IPS) the enzymatic activity of the β5 subunit of the human immunoproteasome (IPS) is analyzed. […] Inhibition is indicated as IC50 [nM] (“-”=not measured).

Experiment [2] concerns the target T2, β5 subunit of the human immunoproteasome (IPS) (Homo sapiens, UniProt P28062).
T2 construct: purchased Boston Biochem E-370
The experiment can be described thus: β5 inhibition assay, human immunoproteasome (Suc-LLVY-AMC). Format: biochemical. To be noted: IC50 class, Suc-LLVY-AMC substrate. The essentials: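 Human immunoproteasome (1 nM final) was preincubated 10 min at RT with compound in 100 mM HEPES pH 7.5, 50 mM NaCl, 0.02% SDS, 1 mM DTT. Suc-LLVY-AMC (22.6 μM final) was then added for 4 h at RT in the dark. After stopping with 1 μM bortezomib, AMC fluorescence was read (ex 355/em 460 nm).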

The next experiment concerns hPMBC. The experiment can be described thus: Chymotrypsin-like ProteasomeGlo assay in hPBMC. In kind it is cell-based. To be noted: Homo sapiens; read-out: Pglo hPBMC. The essentials: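 B cells isolated from human PBMC (buffy coats, density gradient, magnetic isolation). Cells treated with compound for 105 min at 37 °C, with staurosporine and DMSO included. Chymotrypsin-like proteasome activity read by luminescence with Suc-LLVY-Glo substrate to derive IC50.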

Consider `Cc1ccc2cc1CNC(=O)[C@H](CCc1ccccc1)NC(=O)[C@@H](NC(=O)C1CCCc3ccccc31)CC(=O)N1CCCC(CCO2)C1` (stereo partly drawn) [Compound 82, N-((9S,12S)-5^4-methyl-8,11,14-trioxo-9-phenethyl-4-oxa-7,10-diaza-1(3,1)-piperidina-5(1,3)-benzenacyclotetradecaphane-12-yl)-1,2,3,4-tetrahydronaphthalene-1-carboxamide], for which the IC50 (in experiment [1]; in experiment [2]; with hPMBC) was under 0.1 µM throughout.
In the case of `COc1ccc(CC(=O)N[C@H]2CC(=O)N3CCCC(CCOc4ccc(C)c(c4)CNC(=O)[C@H](CCc4ccccc4)NC2=O)C3)cc1` (stereo partly drawn) [Compound 83, 2-(4-methoxyphenyl)-N-((9S,12S)-5^4-methyl-8,11,14-trioxo-9-phenethyl-4-oxa-7,10-diaza-1(3,1)-piperidina-5(1,3)-benzenacyclotetradecaphane-12-yl)acetamide], the IC50 (in experiment [1]; in experiment [2]; in the experiment on hPMBC) was under 0.1 µM in each case.
For `COc1ccccc1CC(=O)N[C@H]1CC(=O)N2CCCC(CCOc3ccc(C)c(c3)CNC(=O)[C@H](CCc3ccccc3)NC1=O)C2` (stereo partly drawn) [Compound 84, 2-(2-methoxyphenyl)-N-((9S,12S)-5^4-methyl-8,11,14-trioxo-9-phenethyl-4-oxa-7,10-diaza-1(3,1)-piperidina-5(1,3)-benzenacyclotetradecaphane-12-yl)acetamide], the IC50 (in experiment [1]; in experiment [2]; in the experiment with hPMBC) was under 0.1 µM each time.
With `COc1cccc(CC(=O)N[C@H]2CC(=O)N3CCCC(CCOc4ccc(C)c(c4)CNC(=O)[C@H](CCc4ccccc4)NC2=O)C3)c1` (stereo partly drawn) [Compound 85, 2-(3-methoxyphenyl)-N-((9S,12S)-5^4-methyl-8,11,14-trioxo-9-phenethyl-4-oxa-7,10-diaza-1(3,1)-piperidina-5(1,3)-benzenacyclotetradecaphane-12-yl)acetamide], the IC50 (in experiment [1]; in experiment [2]; with hPMBC) was under 0.1 µM throughout.
`CO[C@@H](C(=O)N[C@H]1CC(=O)N2CCCC(CCOc3ccc(C)c(c3)CNC(=O)[C@H](CCc3ccccc3)NC1=O)C2)c1ccccc1` (stereo partly drawn) [Compound 86, (2R)-2-methoxy-N-((9S,12S)-5^4-methyl-8,11,14-trioxo-9-phenethyl-4-oxa-7,10-diaza-1(3,1)-piperidina-5(1,3)-benzenacyclotetradecaphane-12-yl)-2-phenylacetamide]: the IC50 (in experiment [1]; in experiment [2]; in the experiment with hPMBC) was under 0.1 µM in each case.
Turning to `Cc1ccc2cc1CNC(=O)[C@H](CCc1ccccc1)NC(=O)[C@@H](NC(=O)c1cc3cc(C(F)(F)F)ccc3n1C)CC(=O)N1CCCC(CCO2)C1` (stereo partly drawn) [Compound 87, 1-methyl-N-((9S,12S)-5^4-methyl-8,11,14-trioxo-9-phenethyl-4-oxa-7,10-diaza-1(3,1)-piperidina-5(1,3)-benzenacyclotetradecaphane-12-yl)-5-(trifluoromethyl)-1H-indole-2-carboxamide], the IC50 (in experiment [1]; in experiment [2]; with hPMBC) was under 0.1 µM in each case.
Take `Cc1ccc2cc1CNC(=O)[C@H](CCc1ccccc1)NC(=O)[C@@H](NC(=O)CN1CCOCC1)CC(=O)N1CCCC(CCO2)C1` (stereo partly drawn) [Compound 88, N-((9S,12S)-5^4-methyl-8,11,14-trioxo-9-phenethyl-4-oxa-7,10-diaza-1(3,1)-piperidina-5(1,3)-benzenacyclotetradecaphane-12-yl)-2-morpholinoacetamide]: the IC50 (in experiment [1]; in experiment [2]; with hPMBC) was under 0.1 µM in each case.
As for `Cc1ccc2cc1CNC(=O)[C@H](CCc1ccccc1)NC(=O)[C@@H](NC(=O)CN1CCCC1)CC(=O)N1CCCC(CCO2)C1` (stereo partly drawn) [Compound 89, N-((9S,12S)-5^4-methyl-8,11,14-trioxo-9-phenethyl-4-oxa-7,10-diaza-1(3,1)-piperidina-5(1,3)-benzenacyclotetradecaphane-12-yl)-2-(pyrrolidin-1-yl)acetamide], the IC50 (in experiment [1]; in experiment [2]; in the experiment with hPMBC) was under 0.1 µM throughout.
`Cc1ccc2cc1CNC(=O)C(c1cnn(C)c1)NC(=O)CCC(=O)N1CCCC(CCO2)C1` (stereo not drawn) [Compound 116, 5^4-methyl-9-(1-methyl-1H-pyrazol-4-yl)-4-oxa-7,10-diaza-1(3,1)-piperidina-5(1,3)-benzenacyclotetradecaphane-8,11,14-trione]: the IC50 in experiment [1] is over 5 µM; in experiment [2], 0.1 to 0.5 µM; with hPMBC, 0.5 to 1 µM.
In the case of `Cc1cc2cc(c1C)CNC(=O)[C@H](Cc1c[nH]c3ccccc13)NC(=O)CCC(=O)N1CCCC(CCO2)C1` (stereo partly drawn) [Compound 120, (9S)-9-((1H-indol-3-yl)methyl)-5^4,5^5-dimethyl-4-oxa-7,10-diaza-1(3,1)-piperidina-5(1,3)-benzenacyclotetradecaphane-8,11,14-trione], the figures for the IC50 (in experiment [1]; in experiment [2]; with hPMBC) were under 0.1 µM, under 0.1 µM and 0.1 to 0.5 µM, respectively.
`Cc1ccc2cc1CNC(=O)[C@H](CCc1ccccc1)NC(=O)[C@@H](NC(=O)CN1CCNCC1)CC(=O)N1CCCC(CCO2)C1` (stereo partly drawn) [Compound 126, N-((9S,12S)-5^4-methyl-8,11,14-trioxo-9-phenethyl-4-oxa-7,10-diaza-1(3,1)-piperidina-5(1,3)-benzenacyclotetradecaphane-12-yl)-2-(piperazin-1-yl)acetamide]: the IC50 (in experiment [1]; in experiment [2]; with hPMBC) was under 0.1 µM throughout.
With `Cc1ccc2cc1CNC(=O)[C@H](CCc1ccccc1)NC(=O)[C@@H](NC(=O)Cc1cccc(N)c1)CC(=O)N1CCCC(CCO2)C1` (stereo partly drawn) [Compound 127, 2-(3-aminophenyl)-N-((9S,12S)-5^4-methyl-8,11,14-trioxo-9-phenethyl-4-oxa-7,10-diaza-1(3,1)-piperidina-5(1,3)-benzenacyclotetradecaphane-12-yl)acetamide], the IC50 (in experiment [1]; in experiment [2]; with hPMBC) was under 0.1 µM each time.
Take `Cc1ccc2cc1CNC(=O)[C@H](CCc1ccccc1)NC(=O)[C@@H](NC(=O)Cc1ccc(N)cc1)CC(=O)N1CCCC(CCO2)C1` (stereo partly drawn) [Compound 128, 2-(4-aminophenyl)-N-((9S,12S)-5^4-methyl-8,11,14-trioxo-9-phenethyl-4-oxa-7,10-diaza-1(3,1)-piperidina-5(1,3)-benzenacyclotetradecaphane-12-yl)acetamide]: the IC50 (in experiment [1]; in experiment [2]; with hPMBC) was under 0.1 µM throughout.
In the case of `CNCC(=O)N[C@H]1CC(=O)N2CCCC(CCOc3ccc(C)c(c3)CNC(=O)[C@H](CCc3ccccc3)NC1=O)C2` (stereo partly drawn) [Compound 129, N-((9S,12S)-5^4-methyl-8,11,14-trioxo-9-phenethyl-4-oxa-7,10-diaza-1(3,1)-piperidina-5(1,3)-benzenacyclotetradecaphane-12-yl)-2-(methylamino)acetamide], the IC50 (in experiment [1]; in experiment [2]; in the experiment with hPMBC) was under 0.1 µM throughout.
On to `CNCCOCC(=O)N[C@H]1CC(=O)N2CCCC(CCOc3ccc(C)c(c3)CNC(=O)[C@H](CCc3ccccc3)NC1=O)C2` (stereo partly drawn) [Compound 130, N-((9S,12S)-5^4-methyl-8,11,14-trioxo-9-phenethyl-4-oxa-7,10-diaza-1(3,1)-piperidina-5(1,3)-benzenacyclotetradecaphane-12-yl)-2-(2-(methylamino)ethoxy)acetamide], for which the IC50 (in experiment [1]; in experiment [2]; in the experiment with hPMBC) was under 0.1 µM in each case.
On to `Cc1ccc2cc1CNC(=O)[C@H](CCc1ccccc1)NC(=O)[C@@H](NC(=O)C1(F)CCNCC1)CC(=O)N1CCCC(CCO2)C1` (stereo partly drawn) [Compound 134, 4-fluoro-N-((9S,12S)-5^4-methyl-8,11,14-trioxo-9-phenethyl-4-oxa-7,10-diaza-1(3,1)-piperidina-5(1,3)-benzenacyclotetradecaphane-12-yl)piperidine-4-carboxamide], for which the IC50 (in experiment [1]; in experiment [2]; in the experiment on hPMBC) was under 0.1 µM in each case.
As for `Cc1ccc2cc1CNC(=O)[C@H](CCc1ccccc1)NC(=O)[C@@H](NC(=O)C1CC(F)(F)CN1)CC(=O)N1CCCC(CCO2)C1` (stereo partly drawn) [Compound 135, (2S)-4,4-difluoro-N-((9S,12S)-5^4-methyl-8,11,14-trioxo-9-phenethyl-4-oxa-7,10-diaza-1(3,1)-piperidina-5(1,3)-benzenacyclotetradecaphane-12-yl)pyrrolidine-2-carboxamide], the IC50 (in experiment [1]; in experiment [2]; in the experiment with hPMBC) was under 0.1 µM each time.
Consider `Cc1ccc2cc1CNC(=O)[C@H](CCc1ccccc1)NC(=O)[C@@H](NC(=O)C1(C)CCNCC1)CC(=O)N1CCCC(CCO2)C1` (stereo partly drawn) [Compound 136, 4-methyl-N-((9S,12S)-5^4-methyl-8,11,14-trioxo-9-phenethyl-4-oxa-7,10-diaza-1(3,1)-piperidina-5(1,3)-benzenacyclotetradecaphane-12-yl)piperidine-4-carboxamide], for which the IC50 (in experiment [1]; in experiment [2]; with hPMBC) was under 0.1 µM throughout.

The record behind these values is US20240415819A1, “MACROCYCLIC COMPOUNDS AS PROTEASOME SUBUNIT BETA TYPE-5 INHIBITORS” (Lead Discovery Center GmbH, priority 2021, published 2024).
